Data set [1] relates to Pseudomonas aeruginosa 01. Briefly: microbe, parasite or virus in culture. On the procedure: (§1) Starting from a peptide stock solution, two-fold serial dilutions were sequentially carried out, accordingly to the broth microdilution method. Following over-night incubation, MIC100 values were determined as the lowest peptide concentration needed for no visible bacterial growth.

Data set [2] relates to Klebsiella pneumoniae ATCC 700,603. Briefly: microbe, parasite or virus in culture. On the procedure:
as §1

The test system of data set [3] is Bacillus globigii TNO BMO13. Briefly: microbe, parasite or virus in culture. On the procedure:
as §1

Data set [4] deals with Staphylococcus aureus ATCC 29,213. Briefly: microbe, parasite or virus in culture. As for the experimental part:
as §1

The subject of the next data set is Bacillus subtilis 6633. In words: microbe, parasite or virus in culture. On the procedure: as §1
The test system of data set [5] is Escherichia coli ATCC 25,922. In words: microbe, parasite or virus in culture. On the procedure:
as §1

Another data set relates to MRSA WKZ-2. In words: microbe, parasite or virus in culture. As for the experimental part:
as §1

Data set [6] relates to Acinetobacter baumannii ATCC 17,978. Briefly: microbe, parasite or virus in culture. As for the experimental part: as §1
Data set [7] concerns Escherichia coli ATCC 25,922. Particulars: E. coli ATCC 25,922; peptide incubated in water without proteases or serum. On the procedure:
as §1
(§2) To analyze the stability of the peptides to the proteases, 100 μM of LL-III and glycosylated LL-III were incubated with 100 nM of α-chymotrypsin or pepsin at 37 °C for 15 min and then antimicrobial activity were assayed as reported above. The peptide solution without proteases was used as the control group.
(§3) For comparison, the MIC values of untreated peptides (incubated in water) were also determined.

Data set [8] deals with Escherichia coli ATCC 25,922. Particulars: for MIC after treatment with pepsin / MIC after treatment with α-chymotrypsin: E. coli ATCC 25,922, 37 °C, 15 min, then MIC; for MIC after treatment with pepsin: 100 μM peptide incubated with 100 nM pepsin; for MIC after treatment with α-chymotrypsin: 100 μM peptide incubated with 100 nM α-chymotrypsin. As for the experimental part: as §1, §2

The test system of data set [9] is Escherichia coli ATCC 25,922. The conditions noted are these: E. coli ATCC 25,922; 200 μM peptide solution with fetal bovine serum 1:1 (v/v), 24 h, 37 °C, then MIC. On the procedure: as §1, §3
For data set [10], the system named is BALB/c 3T3 cells (normal murine fibroblasts). The conditions noted are these: BALB/c 3T3, two-fold dilutions of peptide, 24 h, 37 °C, 5% CO2, three independent experiments. As for the experimental part: In brief, 5·10^3 cells were seeded on a 96-well plate and after 16 h treated with increasing concentrations of peptides for 24 h at 37 °C and 5% CO2. Cell viability was analyzed by performing the (3-(4,5-dimethylthiazol-2-yl)-2,5 diphenyltetrazolium bromide) reduction inhibition assay (MTT assay)[42].
Normal and transformed murine fibroblasts, 3T3 and SVT2, were treated with increasing concentration of the two peptides. After 24 h of incubation at 37 °C and 5% CO2, cells mitochondrial activity was measured performing MTT assay.

[11] abbreviates: Pseudomonas aeruginosa 01, 1 × 10^6 CFU/mL, 0.5X Nutrient Broth, over-night, MIC100.
[12] abbreviates: Klebsiella pneumoniae ATCC 700,603, 1 × 10^6 CFU/mL, 0.5X Nutrient Broth, over-night, MIC100.
Where [13] appears, read: Bacillus globigii TNO BMO13, 1 × 10^6 CFU/mL, 0.5X Nutrient Broth, over-night, MIC100.
Where [14] appears, read: Staphylococcus aureus ATCC 29,213, 1 × 10^6 CFU/mL, 0.5X Nutrient Broth, over-night, MIC100.
Where [15] appears, read: Bacillus subtilis 6633, 1 × 10^6 CFU/mL, 0.5X Nutrient Broth, over-night, MIC100.
Where [16] appears, read: Escherichia coli ATCC 25,922, 1 × 10^6 CFU/mL, 0.5X Nutrient Broth, over-night, MIC100.
Where [17] appears, read: MRSA WKZ-2, 1 × 10^6 CFU/mL, 0.5X Nutrient Broth, over-night, MIC100.
Where [18] appears, read: Acinetobacter baumannii ATCC 17,978, 1 × 10^6 CFU/mL, 0.5X Nutrient Broth, over-night, MIC100.
The mark [19] stands for this setting: from MIC values against E. coli after 15 min at 37 °C with protease.

We go through three compounds from publication PMC9988962 (Scientific Reports, 2023).

≈ marks a conversion by molar mass, not a printed value. Residues, ends and D or L forms follow the SMILES beside them. *: point of attachment. NH(β-GlcNAc) = CC(=O)N[C@@H]1[C@@H](O)[C@H](O)[C@@H](CO)O[C@H]1N*

Take `O=C(O)c1cn(C2CC2)c2cc(N3CCNCC3)c(F)cc2c1=O` [Ciprofloxacin]: the MIC in data set [1] (Pseudomonas aeruginosa, 01) was found to be 0.3 µM (≈ 0.0994 µg/mL); in [2] (Klebsiella pneumoniae), 1.2 µM (≈ 0.398 µg/mL); in data set [3] (Bacillus subtilis, TNOBMO13) it was 0.3 µM (≈ 0.0994 µg/mL); in data set [4] (Staphylococcus aureus, ATCC29), 0.6 µM (≈ 0.199 µg/mL); against Bacillus subtilis 6633 (Bacillus subtilis, 6633), 0.15 µM (≈ 0.0497 µg/mL); in data set [5] (Escherichia coli), 0.15 µM (≈ 0.0497 µg/mL). Moreover, the MIC in the data set on MRSA WKZ-2 (Staphylococcus aureus, MRSA) is 0.3 µM (≈ 0.0994 µg/mL); in data set [6] (Acinetobacter baumannii), 0.15 µM (≈ 0.0497 µg/mL).

For the compound `CC[C@H](C)[C@H](NC(=O)[C@H](CCCCN)NC(=O)[C@H](CCCCN)NC(=O)[C@H](Cc1c[nH]c2ccccc12)NC(=O)[C@H](CC(N)=O)NC(=O)[C@@H](N)C(C)C)C(=O)N[C@@H](CC(C)C)C(=O)NCC(=O)N[C@@H](CCCCN)C(=O)N[C@H](C(=O)N[C@H](C(=O)N[C@@H](CCCCN)C(=O)N[C@H](C(=O)N[C@H](C(=O)N[C@@H](CCCCN)C(N)=O)C(C)C)C(C)C)[C@@H](C)CC)[C@@H](C)CC` [LL-III, Lasioglossin III] (H-VNWKKILGKIIKVVK-NH2), the “MIC after treatment in water (control)” value in data set [7] worked out at 3.12 µM (≈ 5.51 µg/mL). Also, the MIC was determined as 1.56 µM (≈ 2.75 µg/mL) in [1] (setting [11]); 3.12 µM (≈ 5.51 µg/mL) in [2] (setting [12]); 1.56 µM (≈ 2.75 µg/mL) in data set [3] (setting [13]); 1.56 µM (≈ 2.75 µg/mL) in data set [4] (setting [14]); 1.56 µM (≈ 2.75 µg/mL) against Bacillus subtilis 6633 (setting [15]); 3.12 µM (≈ 5.51 µg/mL) in data set [5] (setting [16]). Moreover, the MIC (with MRSA WKZ-2 (setting [17]); in data set [6] (setting [18])) was 3.12 µM (≈ 5.51 µg/mL) each time. Besides, the “MIC after treatment with pepsin” value in data set [8] was determined as 12.5 µM. Further, the “MIC after treatment with α-chymotrypsin” value in [8] came out at 25 µM. In addition, the “MIC after treatment with 50% FBS” value in [9] is given as 6.25 µM.

Turning to `CC[C@H](C)[C@H](NC(=O)[C@H](CCCCN)NC(=O)[C@H](CCCCN)NC(=O)[C@H](Cc1c[nH]c2ccccc12)NC(=O)[C@H](CC(=O)N[C@@H]1O[C@H](CO)[C@@H](O)[C@H](O)[C@H]1NC(C)=O)NC(=O)[C@@H](N)C(C)C)C(=O)N[C@@H](CC(C)C)C(=O)NCC(=O)N[C@@H](CCCCN)C(=O)N[C@H](C(=O)N[C@H](C(=O)N[C@@H](CCCCN)C(=O)N[C@H](C(=O)N[C@H](C(=O)N[C@@H](CCCCN)C(N)=O)C(C)C)C(C)C)[C@@H](C)CC)[C@@H](C)CC` [g-LL-III] (H-VD(NH(β-GlcNAc))WKKILGKIIKVVK-NH2), in data set [7], the “MIC after treatment in water (control)” value was found to be 3.12 µM (≈ 6.14 µg/mL). Further, the MIC in [1] (setting [11]) worked out at 3.12 µM (≈ 6.14 µg/mL); in data set [2] (setting [12]), 3.12 µM (≈ 6.14 µg/mL); in data set [3] (setting [13]), 1.56 µM (≈ 3.07 µg/mL); in [4] (setting [14]), 1.56 µM (≈ 3.07 µg/mL); in the data set on Bacillus subtilis 6633 (setting [15]), 1.56 µM (≈ 3.07 µg/mL); in [5] (setting [16]) it was 3.12 µM (≈ 6.14 µg/mL). In addition, the MIC (against MRSA WKZ-2 (setting [17]); in data set [6] (setting [18])) was 3.12 µM (≈ 6.14 µg/mL) each time. The “cell viability (MTT), g-LL-III compared with LL-III” value in data set [10] is “no significant differences”. The “MIC after treatment with pepsin” value in data set [8] is recorded as 6.25 µM. Also, the “MIC after treatment with α-chymotrypsin” value in data set [8] is on record as 6.25 µM. Also, the “reduction of susceptibility to pepsin versus parental peptide” value in data set [8] (setting [19]) stood at 2 times. In data set [8] (setting [19]), the “reduction of susceptibility to α-chymotrypsin versus parental peptide” value is given as 4 times. The “MIC after treatment with 50% FBS” value in data set [9] came to 3.12 µM.
